Experimental data published in paper PMC7845692 (Frontiers in Pharmacology, 2020).
Where two headings read alike, the source gives them in different places.

How the values were obtained:
[1] = HCT-8 cell viability (MTS); settings: human
[2] = tested on: Feline infectious peritonitis virus; assay: anti-FIPV activity, cytopathic effect by visualization in Fcwf-4 cells; settings: for EC50: Alphacoronavirus 1, read-out: Feline infectious peritonitis virus EC50 CPE/visualization
Experimental: (§2) The serotype II FIPV Taiwan isolate NTU156 strain, a kind gift from National Taiwan University, was propagated and titrated in Fcwf-4 cells ([Lin et al., 2009]). The EC50 for anti-FIPV activity and CC50 for cell cytotoxicity were determined as previously described ([Yang et al., 2020b]).

[3] = cell cytotoxicity by visualization (FIPV host cells); settings: cat
Experimental: as §2

Human coronavirus OC43 = assay: HCoV-OC43 immunofluorescent assay (IFA) against N protein in HCT-8 cells; assay type: cell-based; settings: for EC50: read-out: Human coronavirus OC43 EC50 (IFA); for Human coronavirus OC43 Selectivity index: CC50/EC50, HCT-8 cells
HCoV-OC43 = HCoV-OC43 viral yield, end point dilution assay / TCID50; assay type: cell-based, Human coronavirus OC43
in vitro [4] = settings: human
SARS-CoV-2 [5] = assay: microbe, parasite or virus in culture; assay type: cell-based; settings: Severe acute respiratory syndrome coronavirus 2, Vero C1008; Vero E6 cells, 5–7 days, Figure 5B-b; read-out: SARS-CoV-2 plaque assay EC50
HCoV-229E [6] = assay: HCoV-229E viral yield, end point dilution assay / TCID50; settings: MRC-5, MOI 0.05
in vitro [7] = settings: human, MRC-5 cells
HCoV-229E [8] = assay: HCoV-229E viral RNA (ORF1, ORF N) by semi-RT-qPCR in MRC-5 cells; assay type: cell-based, Human coronavirus 229E; settings: MRC-5, MOI 1, 30 h.p.i., 10–300 nM, dose dependent
Experimental: These experiments were performed as described ([Yang et al., 2007b]). Mock or HCoV-229E infected (MOI of 1) lysates were processed and prepared at 30 h.p.i. without or with compound treatment. The total RNA was extracted with TRIzol reagent (Invitrogen). The relative viral RNA expression levels were determined by semi-RT-qPCR, analyzed with the ImageJ Analyzer program (http://imagej.nih.gov/ij/index.html), and normalized with the housekeeping gene GAPDH. The primers used to amplify the PCR products were 5′-GGCGAGGTGGAATTTGTTTA-3′ and 5′-ACCTTTAAGCCACCATGTGC-3′ for ORF1; 5′-TCTGCCAAGAGTCTTGCTCG-3′ and 5′-AGCATAGCAGCTGTTGACGG-3′ for ORF N. The amplification of target cDNA was conducted under the following conditions: 25 cycles of 95°C for 30 s, 55°C for 20 s, and 72°C for 30 s for ORF N; 29 cycles of 95°C for 30 s, 55°C for 20 s, and 72°C for 30 s for ORF1, and 35 cycles of 95°C for 30 s, 55°C for 20 s, and 72°C for 30 s for GAPDH. The final PCR products were subjected to electrophoresis on 2% agarose gel containing ethidium bromide along with DNA markers.

Human coronavirus 229E = assay: HCoV-229E cytopathic effect, crystal violet absorbance in MRC-5 cells; settings: CC50/EC50, MRC-5 cells
SARS-CoV-2 [9] = assay: SARS-CoV-2 cytopathic effect by visualization in Vero E6 cells; assay type: cell-based; settings: Severe acute respiratory syndrome coronavirus 2, Vero C1008, read-out: SARS-CoV-2 EC50 CPE/visualization
Experimental: (§1) CPE was performed as described ([Wu et al., 2004]). For IFA, Vero E6 cells (BCRC number: 60476; derived from ATCC CRL-1586) were treated with each compound at the indicated concentration for 1 h at 37°C. The cells were adsorbed with SARS-CoV-2 (TCDC#4) (sequence available on the GISAID website) at an MOI = 0.01 for 1 h at 37°C. After virus adsorption, the cells were washed with PBS and fresh medium containing each compound at the indicated concentration was added. After 2 days, cells were fixed with 4% paraformaldehyde and permeabilized with 0.5% Triton X-100. The cells were stained with anti-SARS-CoV-2 N protein antibody, provided by Dr. An-Suei Yang of the Genomics Research Center, Academia Sinica, and goat anti-human IgG-Alexa Fluor 488 (A11013, Invitrogen) (in green). The nuclei were counter stained with DAPI (in blue) (D1306, Invitrogen). The N protein expression was measured using a high-content image analysis system (Molecular Devices). The cell viability was determined by Cell Counting Kit-8 (CCK-8) (Sigma-Aldrich, cat #96992). EC50 and CC50 values were calculated by Prism software.

SARS-CoV-2 [10] = assay: SARS-CoV-2 IFA against N protein in Vero E6 cells; assay type: cell-based
Experimental: as §1

[11] = Vero E6 cytotoxicity by visualization; assay type: cell-based; settings: African green monkey, Vero E6 cells; read-out: SARS-CoV-2 CC50 Visualization
Experimental: as §1

[12] = Vero E6 cell viability (CCK-8); assay type: cell-based; settings: African green monkey, Vero E6 cells; read-out: SARS-CoV-2 CC50 CCK-8
Experimental: as §1

[13] = Betacoronavirus 1, OC43, HCT-8, 72 h
[14] = Betacoronavirus 1, OC43, HCT-8 cells, MOI 0.05, 72 h.p.i., means ± SD
[15] = HCT-8, MOI 0.05, reduction ∼2–3 orders of magnitude
[16] = at concentrations of up to 50 μM

SMILES: COc1cc2c3c(c4cc(OC)c(OC)c(OC)c4c2cc1OC)CC1CCC[N+]1([O-])C3 (centres unmarked) [031p13-3]
- CC50 at 72 h ([1]; HCT-8 cells): > 10000 nM
- EC50 [2]: 1560 nM
- Feline infectious peritonitis virus Selectivity index ([2]; CC50/EC50, Fcwf-4 cells): >32.1
- CC50 [3]: > 50000 nM
- EC50 (Human coronavirus OC43; [13]): 1890 ± 228 nM
- Human coronavirus OC43 Selectivity index (Human coronavirus OC43): >5.3

SMILES: C[C@]12CC[C@H](O)C[C@H]1CC[C@@H]1[C@@H]2CC[C@]2(C)[C@@H](c3ccc(=O)oc3)CC[C@]12O [Bufalin, bufalin, reference compound]
- CC50 at 72 h [1]: 900 ± 180 nM
- EC50 [2]: 19 ± 9 nM
- Feline infectious peritonitis virus Selectivity index ([2]; CC50/EC50, Fcwf-4 cells): 28.5
- CC50 [3]: 542 ± 213 nM
- EC50 (Human coronavirus OC43; [13]): 56 ± 4 nM
- Human coronavirus OC43 Selectivity index (Human coronavirus OC43): 16.1
- concentration of maximum reduction of HCoV-OC43 viral yield (HCoV-OC43): 100 nM
- maximum reduction of HCoV-OC43 viral yield (HCoV-OC43): 2–3 orders of magnitudes

SMILES: C[C@]12CC[C@H](O)C[C@H]1CC[C@@H]1[C@@H]2CC[C@]2(C)[C@@H](C3=CC(=O)OC3)CC[C@]12O [Digitoxigenin, digitoxigenin]
- CC50 at 72 h [1]: > 2500 nM
- EC50 [2]: 458 ± 18 nM
- Feline infectious peritonitis virus Selectivity index ([2]; CC50/EC50, Fcwf-4 cells): 7.8
- CC50 [3]: 3560 ± 375 nM
- EC50 (Human coronavirus OC43; [13]): 323 ± 20 nM
- Human coronavirus OC43 Selectivity index (Human coronavirus OC43): >7.7

SMILES: C[C@H]1O[C@@H](O[C@H]2[C@@H](O)C[C@H](O[C@H]3[C@@H](O)C[C@H](O[C@H]4CC[C@@]5(C)[C@H](CC[C@@H]6[C@@H]5C[C@@H](O)[C@]5(C)[C@@H](C7=CC(=O)OC7)CC[C@]65O)C4)O[C@@H]3C)O[C@@H]2C)C[C@H](O)[C@@H]1O [Digoxin, digoxin]
- Feline infectious peritonitis virus Selectivity index [2]: 5.6
- EC50 [2]: 212 ± 96 nM
- CC50 [3]: 1190 ± 603 nM
- CC50 (in vitro [4]): 1400 ± 350 nM
- EC50 (Human coronavirus OC43; [14]): 269 ± 45 nM
- Human coronavirus OC43 Selectivity index (Human coronavirus OC43): 5.2

SMILES: N#C[C@@]1(c2ccc3c(N)ncnn23)O[C@H](CO)[C@@H](O)[C@H]1O [GS441524, GS-441524]
- CC50 at 72 h (in vitro [4]): > 50000 nM
- EC50 (SARS-CoV-2 [5]): 860 ± 29.2 nM
- EC50 (Human coronavirus OC43; [13]): 6930 nM
- Human coronavirus OC43 Selectivity index (Human coronavirus OC43): >7.2

SMILES: CO[C@H]1C[C@H](O[C@H]2CC[C@@]3(C)[C@H](CC[C@@H]4[C@@H]3CC[C@]3(C)[C@@H](C5=CC(=O)OC5)[C@@H](OC(C)=O)C[C@]43O)C2)O[C@@H](C)[C@@H]1O [Oleandrin, oleandrin]
- EC50 [2]: 729 ± 244 nM
- Feline infectious peritonitis virus Selectivity index ([2]; CC50/EC50, Fcwf-4 cells): 3.9
- CC50 [3]: 2850 ± 1070 nM
- CC50 (in vitro [4]): 211 ± 62 nM
- EC50 (Human coronavirus OC43; [14]): 56 ± 5 nM
- Human coronavirus OC43 Selectivity index (Human coronavirus OC43): 3.8
- maximum reduction of HCoV-OC43 viral yield (HCoV-OC43): 2–3 orders of magnitudes
- concentration of maximum reduction of HCoV-OC43 viral yield (HCoV-OC43; [15]): 30 nM

SMILES: C[C@@H]1O[C@@H](O[C@H]2C[C@@H](O)[C@]3(CO)[C@H]4[C@H](O)C[C@]5(C)[C@@H](C6=CC(=O)OC6)CC[C@]5(O)[C@@H]4CC[C@]3(O)C2)[C@H](O)[C@H](O)[C@H]1O [Ouabain, ouabain]
- EC50 [2]: 1560 nM
- Feline infectious peritonitis virus Selectivity index ([2]; CC50/EC50, Fcwf-4 cells): 4.0
- CC50 [3]: 6250 ± 2160 nM
- CC50 (in vitro [4]): 504 ± 11 nM
- EC50 (Human coronavirus OC43; [14]): 71 ± 7 nM
- Human coronavirus OC43 Selectivity index (Human coronavirus OC43): 7.1
- maximum reduction of HCoV-OC43 viral yield (HCoV-OC43): 2–3 orders of magnitudes
- concentration of maximum reduction of HCoV-OC43 viral yield (HCoV-OC43; [15]): 10 nM

SMILES: COc1cc2c3c(c4cc(OC)c(OC)cc4c2cc1OC)CN1CCCC1C3 (centres unmarked) [PI09]
- complete reduction of HCoV-229E viral yield (HCoV-229E [6]; at 100, 300 and 600 nM respectively (dbq33b, dbq33b4p7, PI09)): 6–7 log of magnitudes
- concentration giving complete reduction of HCoV-229E viral yield (HCoV-229E [6]; reduction 6–7 log): 600 nM
- CC50 (in vitro [7]): 6640 nM
- effect on HCoV-229E viral genome replication and subgenomic viral RNA syntheses (RT-PCR ORF1, ORF N) (HCoV-229E [8]): inhibited HCoV-229E viral genome replication and subgenomic viral RNA syntheses
- Human coronavirus 229E Selectivity index (Human coronavirus 229E): 93
- EC50 [2]: 62 ± 25 nM
- Feline infectious peritonitis virus Selectivity index ([2]; CC50/EC50, Fcwf-4 cells): 102.8
- EC50 (SARS-CoV-2 [9]): 78 nM
- SARS-CoV-2 Selectivity index (IFA/CCK-8) (SARS-CoV-2 [10]; CC50/EC50, Vero E6 cells): 46
- EC50 (SARS-CoV-2 [10]; Severe acute respiratory syndrome coronavirus 2, Vero C1008, 48 h, read-out: SARS-CoV-2 EC50 IFA, Vero E6 cells, MOI 0.01, 2 d.p.i., N protein): 77 nM
- EC50 (SARS-CoV-2 [10]; read-out: SARS-CoV-2 EC50 IFA, Vero E6 cells, MOI 0.01, 2 d.p.i., N protein): 76.8 nM
- CC50 [11]: 5000 nM
- CC50 [3]: 6380 ± 2250 nM
- CC50 [12]: 3550 nM
- CC50 (in vitro [4]): > 10000 nM
- EC50 (Human coronavirus OC43; [14]): 68 ± 3 nM
- Human coronavirus OC43 Selectivity index (Human coronavirus OC43): >147
- complete reduction of HCoV-OC43 viral yield (HCoV-OC43): 7–8 log of magnitudes
- concentration accomplishing complete reduction of HCoV-OC43 viral yield (HCoV-OC43; HCT-8, MOI 0.05, reduction ∼7–8 log): 300 nM

SMILES: COc1cc2c3c(c4cc(OC)c(OC)cc4c2cc1OC)CN1CCCCC1C3 (centres unmarked) [PQ09]
- CC50 at 72 h ([1]; HCT-8 cells): > 10000 nM
- EC50 [2]: 17 ± 6 nM
- Feline infectious peritonitis virus Selectivity index ([2]; CC50/EC50, Fcwf-4 cells): 182.0
- CC50 [3]: 3090 ± 886 nM
- EC50 (Human coronavirus OC43; [13]): 52 ± 6 nM
- Human coronavirus OC43 Selectivity index (Human coronavirus OC43): >193

SMILES: CCC(CC)COC(=O)[C@H](C)N[P@](=O)(OC[C@H]1O[C@@](C#N)(c2ccc3c(N)ncnn23)[C@H](O)[C@@H]1O)Oc1ccccc1 [Remdesivir]
- CC50 (in vitro [4]): > 50000 nM
- EC50 (SARS-CoV-2 [5]): 647 ± 16.7 nM
- EC50 (Human coronavirus OC43; [13]): 947 ± 320 nM
- Human coronavirus OC43 Selectivity index (Human coronavirus OC43): >52.8

SMILES: CCN1CCc2c(c3cc(OC)c(OC)cc3c3cc(OC)ccc23)C1 [dbq29a]
- CC50 at 72 h ([1]; HCT-8 cells): > 10000 nM
- EC50 [2]: 352 ± 77 nM
- Feline infectious peritonitis virus Selectivity index ([2]; CC50/EC50, Fcwf-4 cells): 12.3
- CC50 [3]: 4310 ± 1120 nM
- EC50 (Human coronavirus OC43; [13]): 213 ± 62 nM
- Human coronavirus OC43 Selectivity index (Human coronavirus OC43): >46.9

SMILES: C[C@]12CC[C@H](O)C[C@H]1CC[C@@H]1[C@@H]2CC[C@]2(C)[C@@](O)(c3ccoc3)CC[C@]12O [rostafuroxin]
- inhibitory activity against FIPV [2, 16]: did not exhibit any inhibitory activity
- inhibitory activity against HCoV-OC43 (Human coronavirus OC43; [16]): did not exhibit any inhibitory activity
